Data published in patent US20190201494A1, “COMPOSITIONS AND METHODS FOR TREATING NICOTINE WITHDRAWAL” (STC UNM, priority 2016, published 2019).
“Also recorded” adds a separate entry of the source.

Tests used:
[1] = tested on: overnight abstinent smokers; experiment: Salivary cortisol response to Trier Social Stress Test (Example 1); format: in vivo, human; settings: 60 IU vs placebo, F(1,35)=12.78, p≤0.001
Description: Intranasal spray administration of insulin or placebo occurred at 12:30 PM. The purpose of the spacing time between morning check-in and nasal spray administration was stabilization of postprandial insulin levels. In a randomized fashion, the study nurse administered one spray in each nostril every three minutes for the total of six sprays of either insulin or placebo. Instructions to perform the Trier Social Stress Test were given at 13:20, and speech delivery occurred 13:30. Briefly, the Trier Social Stress Test^13 is a standardized laboratory stressor consisting of a free speech and a mental arithmetic task in front of an audience. Participants were introduced to the task and instructed to prepare a 5-minute presentation in which they were to promote their candidacy for a job. […]
Salivary measures: Saliva samples were collected using a saliva collection kit (Salimetrics, LLC, Carlsbad, Calif.). Saliva samples were collected at 08:30, 12:20, 13:00, 13:40, 13:50, 14:00, 14:10, and 14:40, and analyzed for cortisol as follows: A microtitre plate was coated with monoclonal antibodies to cortisol using salivary cortisol ELISA kit (Salimetrics, LLC, Carlsbad, Calif.). […] Bound cortisol peroxidase was measured by the reaction of the peroxidase enzyme on the substrate tetramethylbenzidine (TMB). […] Optical density was read on a standard plate at 450 nm. […]

[2] = tested on: smokers, 36 hours of smoking abstinence; experiment: Replication crossover study: Questionnaire on Smoking Urges-Brief on Day 2 of 36 hours smoking abstinence (Example 2); format: in vivo, human
Description: Results from Day 2 are presented. The main differences between Example 1 and Example 2 are: (1) parallel vs crossover design, and (2) placebo content: the parallel design placebo was normal saline, the crossover design was 8.7% NaCl. The purpose of increasing the placebo salt content in the crossover study was to maintain the blind.
Study participants began their first night of smoking abstinence at 20:00 prior to reporting to the inpatient unit of University of New Mexico Clinical and Translational Science Center at 11:30 the following day. During Day 1 at the hospital, participants provided a CO sample, which had to be 50% of their measurement at screening or less than 7 ppm and a negative breath alcohol test (0.00%). Additional criteria for session continuation included negative urine drug test and vitals within normal limits as described in the “Participants” section above. The study nurse evaluated the nares for abnormalities and checked POC glucose to ensure subjects were within normal limits prior to receiving spray.
During Day 1, participants were administered spray at 12:40, ate lunch at 13:00 and completed appetite ratings and a snacking test. Participants ate dinner at 19:00 and lights were turned off at 21:00.
The following morning, participants completed Questionnaire of Smoking Urges at 7:50. Prior to this first questionnaire administration, participants provided a urine sample, which had to be negative for illicit substances, and a CO sample, which had to be either 50% lower than the value on day 1, or less than 7 ppm. An intravenous line was established at 6:45 and a baseline blood sample was drawn. Study nurse checked POC glucose and completed a nares evaluation to confirm participant was within normal limits to receive spray. Spray administration occurred at 8:00, followed by breakfast at 8:20. Post-spray Questionnaire of Smoking Urges was completed at 8:15, 8:45, 9:15, 9:45, 10:30 and 11:30. During this time blood samples were taken for additional analyses. At noon, study nurse evaluated the nares to rule out abnormality and checked POC glucose to ensure that results were within normal limits. The two sessions were separated by one week.
Urges to smoke were rated using the 10-item Questionnaire on Smoking Urges-Brief (Cox et al., 2001. Nicotine Tob Res 3(1):7-16) that consists of 10-questions. The answers are scored from 1 (strongly disagree) to 7 (strongly agree). These questions are the bases for the two factor derived subscales. Factor 1 subscale reflects a strong desire and intention to smoke with smoking perceived as rewarding. Factor 2 subscale reflects an anticipation of relief from negative affect with an urgent desire to smoke. These two subscales were sub-analyses stemming from our main (overall) QSU-Brief analysis. Cravings were measured at −15, 0, +20, +60, +70, +80, +90 and +120 minutes from spray administration on Day 2.
Placebo contained 8.7% NaCl. Per FDA approved protocol, the product was prepared in a biosafety cabinet of UNM Translational Radiopharmacy. Drug Preparation occurred 30 minutes before administration. […] or placebo was placed in a 10 mL amber glass bottle (Gerresheimer AG, Düsseldorf, Germany), which was capped with a 10 mg sterile nasal pump (Aero Pump GmbH, Hochheim, Germany). Assembled product was primed per manufacturer's recommendations before 0.6 ml volume was administered to study participants. In a randomized fashion, study nurse administered one spray in each nostril every three minutes for the total of six sprays of either insulin or placebo. As each spray delivers 0.1 ml of fluid, and the concentration of insulin in Novolin R is 100 IU/mL, administering six sprays delivers 60 IU of insulin.
Random coefficient models were constructed for analyzing study outcomes. Treatment, time, treatment by time interaction, and sequence were included as fixed effects. Time nested within subjects, and time nested within treatment nested within subjects were included as random effects. […]

Q: Which “Peak salivary cortisol levels following stress procedure (peak change from baseline, log-transformed)” value [1] does the source give for “intranasal insulin: bulk human Regular insulin (U100 Novolin R, Novo Nordisk US), 100 IU/ml, six nasal sprays delivering 60 IU” here?
A: increased (i.e., restored) the blunted cortisol response to stress; also recorded: restores blunted cortisol response to stress

Q: What about the “Peak salivary cortisol levels following stress procedure (peak change from baseline, log-transformed)” value ([1]; listed as Intranasal insulin) of the same substance?
A: significantly increased

Q: What about the “Smoking urges (Questionnaire of Smoking Urges) compared to placebo, replication study” value ([2]; 60 IU intranasal, crossover, morning of Day 2, 36 hours abstinence, p≤0.05) of the same substance?
A: decreased significantly; also recorded: This finding was replicated

Q: And the “QSU-Brief Factor 2 compared to placebo, replication study” value ([2]; 60 IU, crossover, Day 2, p=0.18)?
A: no effect; also recorded: not Factor 2 scale

Q: What about the “QSU-Brief Factor 1 compared to placebo, replication study” value ([2]; 60 IU, crossover, Day 2, p≤0.05) of the same substance?
A: significantly decreased; also recorded: the effect was driven by intranasal insulin's effect on Factor 1

Q: And the “QSU-Brief Factor 2, effect of treatment, b, replication study” value ([2]; SE(b)=0.87, z=1.34, p=0.18)?
A: 1.16

Q: What about the “QSU-Brief Factor 1, effect of treatment, b, replication study” value ([2]; SE(b)=1.15, z=2.16, p≤0.05) of the same substance?
A: 2.49

Q: And the “Smoking urges, effect of treatment, b, replication study” value ([2]; SE(b)=1.91, z=1.92, p≤0.05)?
A: 3.67
